{
  "source": "patent US7252957B2",
  "about": "“Identification of etiology of autism” (Immunosciences Lab., Inc., priority 2004, dated 2007)",
  "molecules": {"B1": {"name": "Streptokinase (SK), P00779 27-440 (protein)", "chain": "IAGPEWLLDRPSVNNSQLVVSVAGTVEGTNQDISLKFFEIDLTSRPAHGGKTEQGLSPKSKPFATDSGAMSHKLEKADLLKAIQEQLIANVHSNDDYFEVIDFASDATITDRNGKVYFADKDGSVTLPTQPVQEFLLSGHVRVRPYKEKPIQNQAKSVDVEYTVQFTPLNPDDDFRPGLKDTKLLKTLAIGDTITSQELLAQAQSILNKNHPGYTIYERDSSIVTHDNDIFRTILPMDQEFTYRVKNREQAYRINKKSGLNEEINNTDLISEKYYVLKKGEKPYDPFDRSHLKLFTIKYVDVDTNELLKSEQLLTASERNLDFRDLYDPRDKAKLLYNNLDAFGIMDYTLTGKVEDNHDDTNRIITVYMGKRPEGENASYHLAYDKDRYTEEEREVYSYLRYTGTPIPDNPNDK"}},
  "key": {"CD26": {"tested_on": "CD26", "experiment": "ELISA: binding of gliadin, casein peptides, SK and ethyl mercury to CD26 (inhibition of anti-CD26 binding)", "conditions": "for % Binding of Gliadin, Casein, Streptokinase, or Mercury to CD26 and CD69: CD26 coated wells, % inhibition in binding of anti-CD26 to CD26; for ELISA O.D. at 492 nm: microwell coated with CD26 + competing antigen, peroxidase labeled rabbit anti-CD26", "protocol": "(§1) Plates were incubated for one hour at 37° C. and washed five times for removal of unbound competing antigens. […] After proper incubation and washing, binding of these peptides and proteins to CD26 and CD69 was measured by addition of peroxidase substrate and measurement of color development at 492 nm."}, "CD69": {"biological_target": "T1, CD69 (Homo sapiens, UniProt Q07108)", "T1 construct": "purchased Bio-Synthesis Inc. (Lewisville, Tex.); host or cells: chemical synthesis", "experiment": "ELISA: binding of gliadin, casein peptides, SK and ethyl mercury to CD69 (inhibition of anti-CD69 binding)", "conditions": "for % Binding of Gliadin, Casein, Streptokinase, or Mercury to CD26 and CD69: CD69 coated wells, % inhibition of anti-CD69 binding to CD69; for ELISA O.D. at 492 nm: microwell coated with CD69 + competing antigen, peroxidase labeled rabbit anti-CD69", "protocol": "as §1"}, "[1]": {"biological_target": "CD69 antibody binding epitope … (human)", "experiment": "competition ELISA, CD69-coated wells, read with peroxidase labeled rabbit anti-CD69"}},
  "data": [
    {"molecule": "streptokinase [SK]", "values": [
      {"measurement": "% Binding of Gliadin, Casein, Streptokinase, or Mercury to CD26 and CD69", "setting": "CD26", "value": 77, "unit": "%"},
      {"measurement": "ELISA O.D. at 492 nm", "setting": "CD26", "value": 0.72, "unit": "O.D."},
      {"measurement": "% Binding of Gliadin, Casein, Streptokinase, or Mercury to CD26 and CD69", "setting": "CD69", "value": 86, "unit": "%"},
      {"measurement": "ELISA O.D. at 492 nm", "setting": "CD69", "value": 0.48, "unit": "O.D."}
    ]},
    {"molecule": "Casein", "values": [
      {"measurement": "% Binding of Gliadin, Casein, Streptokinase, or Mercury to CD26 and CD69", "setting": "CD26", "value": 44, "unit": "%"},
      {"measurement": "ELISA O.D. at 492 nm", "setting": "CD26", "value": 1.34, "unit": "O.D."},
      {"measurement": "% Binding of Gliadin, Casein, Streptokinase, or Mercury to CD26 and CD69", "setting": "CD69", "value": 28, "unit": "%"},
      {"measurement": "ELISA O.D. at 492 nm", "setting": "CD69", "value": 1.45, "unit": "O.D."}
    ]},
    {"molecule": "B1", "values": [
      {"measurement": "% Binding of Gliadin, Casein, Streptokinase, or Mercury to CD26 and CD69 (% inhibition of anti-CD69 binding)", "setting": "[1]", "value": 86, "unit": "%"}
    ]}
  ]
}
